Measured values reported in ChEMBL document CHEMBL1201862, “PubChem BioAssay data set” (2004).
The source made the active and inactive calls.

Experiments:
[1] = Luminescence Cell-Based Dose Confirmation HTS to Identify Inhibitors of Platelet Dense Granule Release. [Related pubchem assays: 1663 (Primary HTS), 1678 (Summary of Project)]; assay type: functional
[2] = target: Luciferin 4-monooxygenase (Photinus pyralis, UniProt P08659); test: inhibition of purified Photinus pyralis luciferase – biochemical, luminescence, dose response (AID 1891)
INS1 = test: INS-1E survival protection against cytokine death – cell-based, luminescence, retest, dose response (AID 449756); assay type: functional; conditions: Rattus norvegicus;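 also: cell death triggered by IL-1 beta plus TNF-alpha plus IFN-gamma mixture; protective hits raise ATP signal compared with cytokine alone wells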
[3] = viability of HCT116 lacking mutant beta-catenin – cell-based, human colon tumor, dose response (AID 1045); assay type: functional;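 also: HCT116 colon tumor cells with beta catenin knocked out; cells exposed to compound for 60 hours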
[4] = viability of PTEN-deleted HCT116 cells – cell-based, HCT116 PTEN knockout, dose response (AID 1047); assay type: functional;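 also: HCT116 colon tumor cells with PTEN knocked out; cells exposed to compound for 60 hours before readout; potency for loss of cell viability measured by luminescence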
Cytochrome P450 3A4 = Cytochrome P450 3A4 (Homo sapiens, UniProt P08684);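 also: CYP3A4 tested as one member of a cytochrome P450 panel screen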
Cytochrome P450 2C19 = Cytochrome P450 2C19 (Homo sapiens, UniProt P33261); test: Cytochrome panel assay with activity outcomes. Panel member name: p450-cyp2c19 Compounds with AC50 equal or less than 10 uM are considered active; assay type: functional
Streptokinase A = target: T1, Streptokinase A (Streptococcus pyogenes serotype M1, UniProt P10520); test: viability-normalized secreted streptokinase activity reduction – plasminogen activation absorbance, OD405, dose response (AID 1914); assay type: functional, Streptococcus pyogenes M1 GAS;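 also: secreted streptokinase activity via plasminogen activation per viability signal from cell pellet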
T1 sequence (P10520 whole entry): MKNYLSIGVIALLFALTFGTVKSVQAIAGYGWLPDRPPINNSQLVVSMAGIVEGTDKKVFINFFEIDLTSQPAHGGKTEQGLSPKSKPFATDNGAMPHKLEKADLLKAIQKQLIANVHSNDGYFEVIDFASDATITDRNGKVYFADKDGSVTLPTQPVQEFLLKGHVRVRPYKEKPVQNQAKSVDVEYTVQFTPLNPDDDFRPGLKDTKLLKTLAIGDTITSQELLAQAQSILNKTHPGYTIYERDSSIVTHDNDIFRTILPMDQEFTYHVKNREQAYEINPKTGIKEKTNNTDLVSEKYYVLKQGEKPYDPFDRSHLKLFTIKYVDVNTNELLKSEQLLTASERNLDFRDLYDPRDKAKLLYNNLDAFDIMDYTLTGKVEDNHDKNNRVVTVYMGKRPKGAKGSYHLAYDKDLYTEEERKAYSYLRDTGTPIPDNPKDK

[5] = viability of uninfected HEp-2 cells – cell-based, HTS, cytotoxicity control for RSV inhibitor project, dose response (AID 2410); assay type: functional; conditions: human respiratory syncytial virus
Streptococcus = test: GAS UMAA2166 growth inhibition – luminescence, BacTiterGlo, counter-screen for streptokinase expression inhibitor project, dose response (AID 1915); assay type: functional, organism-based;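 also: potency for reduction of bacterial viability or growth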
[6] = system: Streptococcus sp. 'group A'; test: Streptococcus pyogenes SK(-)GAS viability under kanamycin – luminescence, BacTiterGlo, confirmation, counter-screen for streptokinase expression inhibitor project, dose response (AID 1900); assay type: functional, organism-based
[7] = Luminescence Cell-Based Dose Retest to Confirm Inhibitors of Cancer Stem Cells. [Related pubchem assays (depositor defined):AID2717, AID2721]; assay type: functional, Homo sapiens; conditions: Homo sapiens
[8] = Trypanosoma cruzi growth suppression in host cells – NIH3T3 host cells, beta-gal luminescence, confirmation (AID 2044); assay type: functional, cell-based;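 also: intracellular parasites grown in NIH/3T3 mouse fibroblasts as host cells; luminescent beta-galactosidase reporter signal from transgenic T. cruzi replicating inside host cells; inhibitors lower the luminescence signal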
[9] = NIH3T3 cell viability loss – ATP luminescence, mouse fibroblasts, counter-screen, dose response (AID 2010); assay type: functional, cell-based;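 also: cells exposed to compound for about 90 hours before reading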

Cytochrome P450 2C19, sequence (P33261 whole entry): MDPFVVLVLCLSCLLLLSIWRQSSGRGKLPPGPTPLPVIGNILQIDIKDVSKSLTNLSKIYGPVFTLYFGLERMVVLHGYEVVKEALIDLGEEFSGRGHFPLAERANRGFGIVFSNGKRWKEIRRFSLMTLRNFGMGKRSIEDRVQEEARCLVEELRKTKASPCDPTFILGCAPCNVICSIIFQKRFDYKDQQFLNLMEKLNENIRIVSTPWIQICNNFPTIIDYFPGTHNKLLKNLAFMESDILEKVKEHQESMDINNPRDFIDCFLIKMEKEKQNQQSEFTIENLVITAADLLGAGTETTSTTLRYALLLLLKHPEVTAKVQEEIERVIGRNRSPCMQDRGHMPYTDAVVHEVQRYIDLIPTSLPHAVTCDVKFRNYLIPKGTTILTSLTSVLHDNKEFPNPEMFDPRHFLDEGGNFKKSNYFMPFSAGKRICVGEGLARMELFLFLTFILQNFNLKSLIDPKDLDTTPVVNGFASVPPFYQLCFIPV
Luciferin 4-monooxygenase, sequence (P08659 whole entry): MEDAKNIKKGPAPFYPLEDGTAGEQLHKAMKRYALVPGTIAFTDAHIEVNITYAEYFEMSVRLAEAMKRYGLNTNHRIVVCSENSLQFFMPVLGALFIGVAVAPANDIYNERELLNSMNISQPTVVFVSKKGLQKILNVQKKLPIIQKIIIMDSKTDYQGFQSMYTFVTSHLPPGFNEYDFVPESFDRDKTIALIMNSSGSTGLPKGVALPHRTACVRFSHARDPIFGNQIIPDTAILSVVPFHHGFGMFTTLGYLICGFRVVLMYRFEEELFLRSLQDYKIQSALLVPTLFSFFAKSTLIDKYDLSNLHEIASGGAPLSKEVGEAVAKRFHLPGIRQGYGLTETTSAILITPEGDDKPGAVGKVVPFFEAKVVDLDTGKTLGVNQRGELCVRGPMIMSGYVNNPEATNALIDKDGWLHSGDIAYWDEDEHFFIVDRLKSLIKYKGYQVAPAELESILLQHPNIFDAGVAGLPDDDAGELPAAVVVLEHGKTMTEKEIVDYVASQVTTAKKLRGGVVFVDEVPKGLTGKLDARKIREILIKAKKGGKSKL
Cytochrome P450 3A4, sequence (P08684 whole entry): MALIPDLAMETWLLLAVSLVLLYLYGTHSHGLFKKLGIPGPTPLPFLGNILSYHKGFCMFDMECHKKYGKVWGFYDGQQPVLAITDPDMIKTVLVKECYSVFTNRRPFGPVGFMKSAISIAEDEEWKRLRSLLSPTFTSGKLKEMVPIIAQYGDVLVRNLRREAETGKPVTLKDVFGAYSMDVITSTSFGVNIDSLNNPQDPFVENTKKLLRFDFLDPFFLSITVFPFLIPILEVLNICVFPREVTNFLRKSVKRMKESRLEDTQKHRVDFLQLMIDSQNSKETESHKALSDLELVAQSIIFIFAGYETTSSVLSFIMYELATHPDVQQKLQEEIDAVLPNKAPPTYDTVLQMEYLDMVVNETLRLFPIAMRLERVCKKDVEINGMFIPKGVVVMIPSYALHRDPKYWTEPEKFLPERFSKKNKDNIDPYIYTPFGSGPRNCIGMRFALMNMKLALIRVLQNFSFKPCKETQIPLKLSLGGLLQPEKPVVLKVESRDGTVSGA

CCN=C(S)NNC(=O)c1cc(-c2cccc(OC)c2)nc2ccccc12
EC50 [1]: 7.86 µM (active)
EC50 [2]: 0.259 µM (active)

Cc1cc(NC(=O)Cn2nc(C)c([N+](=O)[O-])c2C)no1
EC50 [1]: > 112 µM (not active)
EC50 [2]: > 112 µM (not active)

COC(=O)c1ccc2c(=O)n(-c3ccccc3)c(SCN3C(=O)c4ccccc4C3=O)nc2c1
AC50 (INS1): 6.09 µM (active)

Nc1c(C(=O)NCCN2CCOCC2)c2nc3ccccc3nc2n1CCc1ccccc1
EC50 [3]: 17.9 µM (active)
EC50 [4]: 15.4 µM (active)

CCOC(=O)C1=NN(C(=O)Nc2ccc(OC)cc2)C2C(=O)N(c3cccc(C(F)(F)F)c3)C(=O)C12 (stereo unspecified)
EC50 [1]: 27.2 µM (active)
EC50 [2]: > 112 µM (not active)

COc1ccc(OC)c2sc(NC(=O)CCS(=O)(=O)c3ccccc3)nc12
EC50 [3]: 62 µM (active)
EC50 [4]: 81.3 µM (active)

O=C(/C=C/c1ccc(-c2ccccc2)cc1)NCc1cccnc1
AC50 (INS1): 7.49 µM (active)

CC1CC(OC(=O)CN2CCCCC2)CC(C)(C)C1 (stereo unspecified)
EC50 [1]: > 112 µM (not active)
EC50 [2]: > 112 µM (not active)

COc1cc(NC(=S)N2CCN(C/C=C/c3ccccc3)CC2)cc(OC)c1
EC50 [1]: > 112 µM (not active)
EC50 [2]: > 112 µM (not active)

Cc1cc(C(C)(C)C)c(OCCCN2CCOCC2)c(C(C)(C)C)c1
AC50 (Cytochrome P450 3A4): 3.16 µM (inconclusive)

Cc1ccc2c(c1)C1CCCC3C1N2CC(=O)N3Cc1ccccc1 (stereo unspecified)
EC50 [3]: 62.7 µM (active)
EC50 [4]: 33.9 µM (active)

COc1ccc2[nH]cc(C=O)c2c1
AC50 (Cytochrome P450 2C19; read-out: AC50): 28.2 µM (inconclusive)

CC(C)(C)NC(=O)C(c1ccccn1)N(C(=O)C1CSC(=O)C1)c1ccc(F)cc1 (stereo unspecified)
AC50 (Cytochrome P450 3A4): 0.794 µM (inconclusive)

c1ccc2[nH]c(-c3nc4ccccc4[nH]3)nc2c1
EC50 [1]: 3.25 µM (active)
EC50 [2]: 2.11 µM (active)

COCCNC(=O)c1cn(Cc2c(F)cccc2Cl)nn1
EC50 [1]: > 112 µM (not active)
EC50 [2]: > 112 µM (not active)

CC(C)c1cccc2nc3c(c(C(C)(C)C)c12)Cn1c-3cccc1=O
AC50 (Cytochrome P450 3A4): 5.01 µM (inconclusive)
AC50 (Cytochrome P450 2C19; read-out: AC50): 25.1 µM (inconclusive)

NC(=O)c1c(NC(=O)c2ccc(S(=O)(=O)N(CCCl)CCCl)cc2)sc2c1CCCCC2
EC50 [3]: 20.5 µM (active)
EC50 [4]: 15 µM (active)

CCCNC(=O)OC[C@@H]1O[C@H](CCON=C(C)C)C=C[C@@H]1Oc1ccc(OC)cc1
AC50 (Cytochrome P450 3A4): 3.98 µM (inconclusive)

CC[C@]1(c2ccccc2OC)ON(c2ccccc2C(F)(F)F)C1=O
AC50 (INS1): 1.75 µM (active)

COCCn1c(N)c(C(=O)Nc2sc3c(c2C(=O)OC)CCCC3)c2nc3ccccc3nc21
EC50 (Streptokinase A): > 150 µM (not active)
CC50 [5]: > 50 µM (active)
EC50 (Streptococcus): 82.4 µM (active)
EC50 [6]: 1.83 µM (active)

C=C(CC1([C@@H](NP(=O)(c2ccccc2)c2ccccc2)[C@H]2C[C@@H]2CCCC)CC1)c1ccccc1
EC50 (Streptokinase A): > 150 µM (not active)
EC50 (Streptococcus): 4.4 µM (active)
AC50 [7]: 3.22 µM (active)
AC50 (Cytochrome P450 2C19; read-out: AC50): 7.94 µM (inconclusive)
EC50 [6]: 2.27 µM (active)

COc1cc(C2c3c(-c4cc(Cl)c(C)cc4O)n[nH]c3C(=O)N2Cc2cccnc2)ccc1O (stereo unspecified)
EC50 [1]: 85 µM (active)
EC50 [2]: > 112 µM (not active)

CN(C)CCNc1ccccn1
AC50 (Cytochrome P450 2C19): inconclusive

CC(Nc1nc(N2CCCC2)nc2ccccc12)c1ccccc1 (stereo unspecified)
EC50 [3]: 4.31 µM (active)
EC50 [4]: 5.65 µM (active)
EC50 [8]: 0.568 µM (active)
EC50 [9]: 55.9 µM (active)

COCCn1c(=O)c(-c2cc(F)cc(F)c2)nc2cncnc21
AC50 (Cytochrome P450 3A4): 15.8 µM (inconclusive)

OC(COc1cccc2ccccc12)CN1CCN(c2ccc(Cl)cc2)CC1 (stereo unspecified)
EC50 (Streptokinase A): 31.1 µM (active)
CC50 [5]: 12 µM (active)
EC50 (Streptococcus): 34.3 µM (active)
AC50 [7]: 6.37 µM (active)
EC50 [6]: 19.7 µM (active)

C=CCNC(=O)c1ccc2nc(-c3ccccc3)c(-c3ccccc3)nc2c1
AC50 (Cytochrome P450 2C19; read-out: AC50): 39.8 µM (inconclusive)

COc1ccc(CNCc2cc3c(C(C)(C)C)nn(-c4ccccc4)c3nc2O)cc1
EC50 [3]: 14.2 µM (active)
EC50 [4]: 10.3 µM (active)

Oc1nc2cc(NC(S)=Nc3ccccc3Cl)ccc2[nH]1
EC50 [1]: > 112 µM (not active)

Cc1ccc(NS(=O)(=O)c2cccc(C(=O)N3CCCCCCC3)c2)cc1
EC50 [1]: > 112 µM (not active)
EC50 [2]: > 112 µM (not active)

O=C(c1ccco1)N1CCC2(CCCN(c3ccccc3)C2)CC1
AC50 (Cytochrome P450 3A4): 15.8 µM (inconclusive)

C=CCNC(=O)/C(C#N)=C/c1c(N(Cc2ccccc2)Cc2ccccc2)nc2ccccn2c1=O
EC50 [3]: 25.3 µM (active)
EC50 [4]: 26 µM (active)

COc1ccccc1C(=O)COC(=O)/C=C/c1ccccc1
EC50 [1]: > 112 µM (not active)
EC50 [2]: > 112 µM (not active)

[O-][n+]1c2c([n+]([O-])c3cc(F)c(F)cc31)CCCC2
AC50 (Cytochrome P450 2C19; read-out: AC50): 1 µM (inconclusive)

Fc1ccc2nc(Nc3nc4c(F)cc(F)cc4s3)sc2c1
AC50 (INS1): 7.02 µM (active)

Cc1c(C(=O)Nc2ccc(-c3nnc4n3CCCCC4)cc2)oc2c1ccc1ccccc12
EC50 [3]: 20.9 µM (active)
EC50 [4]: 19.8 µM (active)
AC50 [7]: 2.48 µM (active)
EC50 [8]: 1.45 µM (active)
EC50 [9]: > 60 µM (not active)

COc1ccc(Cl)cc1NC(=O)c1cc(S(=O)(=O)N2CCCC2)cn1C
EC50 [1]: > 112 µM (not active)
EC50 [2]: > 112 µM (not active)

O=C1COc2ccc(C(=O)COC(=O)c3cc(S(=O)(=O)N4CCOCC4)ccc3F)cc2N1
EC50 [1]: 22.9 µM (active)
EC50 [2]: > 112 µM (not active)

CCOC(=O)C1=C(c2ccccc2)N=c2s/c(=C\c3cccc(O)c3)c(=O)n2C1c1cccs1 (stereo unspecified)
EC50 [3]: 15.1 µM (active)
EC50 [4]: 15 µM (active)
AC50 [7]: 2.94 µM (active)

COC(=O)c1cc(=O)n(Cc2ccco2)/c(=N/c2ccc(F)c(Cl)c2)s1
EC50 [3]: 7.55 µM (active)
EC50 [4]: 8.9 µM (active)

CCc1ccc2c(c1)C1(NN=C(c3ccc(C)cc3)S1)C(=O)N2 (stereo unspecified)
EC50 [3]: 2.81 µM (active)
EC50 [4]: 4.58 µM (active)

COc1ccc(/C(C)=N/Nc2nc(C)cc(-c3ccccc3)n2)cc1
AC50 (INS1): 0.703 µM (active)

COCC(=O)N/N=C/c1ccc(Sc2nc3ccccc3s2)o1
AC50 (Cytochrome P450 3A4): 22.4 µM (inconclusive)

Cc1nc2ccccc2n1CC(=O)N/N=C\c1ccccn1
AC50 (Cytochrome P450 2C19): inconclusive

O=C(N/N=C\c1ccc(CNS(=O)(=O)c2ccc(Cl)cc2)o1)C(=O)Nc1ccc(Oc2ccccc2)cc1
EC50 [3]: 11.1 µM (active)
EC50 [4]: 9.47 µM (active)

CCN(CC)c1ccc(C(=O)N/N=C/c2ccccc2OC(F)F)cc1
AC50 (INS1): 5.97 µM (active)

O=[N+]([O-])c1cccc(/C=C/c2nc(/C=N/c3ccc4ccccc4c3)c(O)o2)c1
EC50 [3]: 18 µM (active)
EC50 [4]: 12.8 µM (active)

COc1c(/C=N/Nc2nc(N3CCCCC3)nc(N3CCCCC3)n2)cccc1[N+](=O)[O-]
AC50 (Cytochrome P450 2C19; read-out: AC50): 7.94 µM (inconclusive)
